Data from ChEMBL document CHEMBL3244099, “Various 5-substituted and 2,5-disubstituted 1,3-dioxanes, a new class of analgesic agents” (1977).

test system: Rattus norvegicus; experiment: Analgesic activity in sc dosed rat assessed as dose required for 2 times increase in reaction time after 15 mins by tail jerk test relative to control; format: functional; details: not given

Row | Compound | ED [mg/kg]
1 | CN(C)C(c1cccnc1)C1COCOC1.Cl (stereo in doubt; (+)-4o) | >80
2 | CN(C)C(c1cccnc1)C1COCOC1.Cl (stereo in doubt; (-)-4o) | 5.7
3 | CN(C)C(c1ccccc1)C1COCOC1.Cl (racemic) | 4
4 | CN(C)C(c1ccc(O)cc1)C1COCOC1.Cl (stereo not given) | 12
5 | CCOC(=O)C1(c2ccccc2)CCN(C)CC1.Cl [MEPERIDINE HYDROCHLORIDE] | 1.9
6 | CC(=O)Oc1ccc(C(C2COCOC2)N(C)C)cc1.Cl (stereo not given) | 7.3
7 | CN(C)C(c1ccccc1)C1COCOC1.Cl (stereo in doubt; (+)-4a) | 69
8 | Cc1ccc(C(C2COC(C)OC2)N(C)C)cc1.Cl (racemic) | 7.9
9 | CN(C)C(c1cccnc1)C1COCOC1.Cl (racemic) | 9.6
10 | CN(C)C(c1ccccc1)C1COCOC1.Cl (stereo in doubt; (-)-4a) | 2.4
11 | Cc1ccc(C(C2COCOC2)N(C)C)cc1.O=C(O)/C=C\C(=O)O (stereo not given) | 7.9
12 | CC1OCC(C(c2ccccc2)N(C)C)CO1 (racemic) | 6.3

test system: Rattus norvegicus; experiment: Analgesic activity in sc dosed rat assessed as dose required for 2 times increase in reaction time after 30 mins by tail jerk test relative to control; format: functional; details: not given

Row | Compound | ED [mg/kg]
13 | COc1ccc2c3c1O[C@H]1[C@@H](O)C=C[C@H]4[C@@H](C2)N(C)CC[C@@]341.O=S(=O)(O)O | 4.2

species on record: Mus musculus; experiment: animal or person; format: functional; details: not given

Row | Compound | ED50 [mg/kg]
14 | CN(C)C(c1cccnc1)C1COCOC1.Cl (stereo in doubt; (+)-4o) | >50
15 | CN(C)C(c1cccnc1)C1COCOC1.Cl (stereo in doubt; (-)-4o) | 3.6
16 | CN(C)C(c1ccccc1)C1COCOC1.Cl (racemic) | 14
17 | CN(C)C(c1ccccc1)C1COCOC1.Cl (stereo in doubt; (+)-4a) | >50
18 | CN(C)C(c1cccnc1)C1COCOC1.Cl (racemic) | 6.1
19 | CN(C)C(c1ccccc1)C1COCOC1.Cl (stereo in doubt; (-)-4a) | 6.2

same assay, conditions: Mus musculus, sc; read-out: ED50

Row | Compound | ED50 [mg/kg]
20 | CN(C)C(c1ccccc1)C1COC(C2CCCC2)OC1 (racemic) | 45
21 | C=CCN(C)C(c1ccccc1)C1COCOC1.Cl (stereo not given) | > 50
22 | CN(C)C(c1ccc(Cl)cc1)C1COCOC1.Cl (stereo not given) | 32
23 | Cl.Clc1ccc(C(C2COCOC2)N2CCCCC2)cc1 (stereo not given) | 33
24 | COc1cccc(C(C2COCOC2)N(C)C)c1.O=C(O)/C=C\C(=O)O (stereo not given) | > 50
25 | CN(C)C(c1cccc(OCc2ccccc2)c1)C1COCOC1.Cl (stereo not given) | > 50
26 | CN(C)C(c1ccc(O)cc1)C1COCOC1.Cl (stereo not given) | 13
27 | CCOC(=O)C1(c2ccccc2)CCN(C)CC1.Cl [MEPERIDINE HYDROCHLORIDE] | 2.9
28 | CCC1OCC(C(c2ccccc2)N(C)C)CO1 (racemic) | 19
29 | CN(C)C(c1ccccn1)C1COCOC1.O=C(O)/C=C\C(=O)O (stereo not given) | > 50
30 | CC1OCOCC1C(c1ccccc1)N(C)C.Cl (stereo not given) | 32
31 | CC(=O)Oc1ccc(C(C2COCOC2)N(C)C)cc1.Cl (stereo not given) | 11
32 | CN(C)C(c1ccc(OCc2ccccc2)cc1)C1COCOC1.Cl (stereo not given) | > 50
33 | Cc1ccccc1C(C1COCOC1)N(C)C.Cl (stereo not given) | 39
34 | CCC1(c2ccccc2)OCC(C(c2ccccc2)N(C)C)CO1.O=C(O)/C=C\C(=O)O (racemic) | > 50
35 | Cc1ccc(C(C2COC(C)OC2)N(C)C)cc1.Cl (racemic) | 2.9
36 | COc1ccc2c3c1O[C@H]1[C@@H](O)C=C[C@H]4[C@@H](C2)N(C)CC[C@@]341.O=S(=O)(O)O | 6.7
37 | Cc1ccc(C(C2COCOC2)N(C)C)cc1.O=C(O)/C=C\C(=O)O (stereo not given) | 20

Row | Compound | ED50 [mg/kg]
38 | CNC(c1ccccc1)C1COCOC1.Cl (stereo not given) | 21
39 | CN(C)C(c1ccc(F)cc1)C1COCOC1.Cl (stereo not given) | 30
40 | Cc1cccc(C(C2COCOC2)N(C)C)c1.O=C(O)/C=C\C(=O)O (stereo not given) | > 50
41 | CCN(CC)C(c1ccccc1)C1COCOC1.[O-][Cl+3]([O-])([O-])O (stereo not given) | > 50
42 | CN(C)C(c1cccc(Cl)c1)C1COCOC1.O=C(O)/C=C\C(=O)O (stereo not given) | > 50
43 | COc1ccc(C(C2COCOC2)N(C)C)cc1.Cl (stereo not given) | > 50
44 | Cl.c1ccc(C(C2COCOC2)N2CCOCC2)cc1 (stereo not given) | > 50
45 | CN(C)C(c1ccccc1)C1(C)COCOC1.Cl (stereo not given) | > 50
46 | CC(C)C1OCC(C(c2ccccc2)N(C)C)CO1.Cl (racemic) | > 50
47 | CN(C)C(c1ccccc1Cl)C1COCOC1.Cl (stereo not given) | 48
48 | Cl.c1ccc(C(C2COCOC2)N2CCCC2)cc1 (stereo not given) | > 50
49 | CC1OCC(C(c2ccccc2)N(C)C)CO1 (racemic) | 3.9
50 | CN(C)C(c1cccc(O)c1)C1COCOC1.Cl (stereo not given) | > 50
51 | CN(C)C(c1ccc(Cl)cc1Cl)C1COCOC1.Cl (stereo not given) | > 50
52 | CN(C)C(c1ccncc1)C1COCOC1.O=C(O)/C=C\C(=O)O (stereo not given) | > 50
53 | CN1CC[C@]23c4c5ccc(O)c4O[C@H]2[C@@H](O)C=C[C@H]3[C@H]1C5.CN1CC[C@]23c4c5ccc(O)c4O[C@H]2[C@@H](O)C=C[C@H]3[C@H]1C5.O=S(=O)(O)O | 0.97
54 | Cl.NC(c1ccccc1)C1COCOC1 (stereo not given) | > 50
55 | CN(C)C(c1ccccc1)C1COC(C2CCCCC2)OC1.Cl (racemic) | > 50
